Measurements: patent US11845774B2, “Sterol derivatives and preparation method and uses thereof” (BEIJING PEKING UNIVERSITY WBL BIOTECH CO., LTD., priority 2011, dated 2023)

Experiments:
[1] = tested on: HepG2 cells; assay: MTT test of inhibiting cancer cells, HepG2; type: cell-based; settings: Homo sapiens, 72 hours, FIG. 3, read-out: IC50 value, growth of human hepatoma cell line
Procedure: (§1) Cancer cells of exponential growth phase were inoculated on 96-well plate, 2×10^4 cells/well, added with drug until final drug concentrations were: 500, 250, 125, 62.5, 31.25, 15.625 and 7.8125 μg/mL, cultured at 37° C. in 5% CO2 cell culture incubator for 72 hours, then added with MTT, 10 μL/well, incubated in dark at 37° C. for 4 hours, culture medium was removed, 150 μL of DMSO or acidified isopropanol was added, vibrated for 5 minutes, and then OD values were measured under wavelength of 570 nm. This was repeated for 3 times, and a blank control was set. These cell strains used the same culture medium, i.e., RPMI1640 culture medium containing 10% fetal bovine serum and 1% double antibody (penicillin and steptomycin).
(§2) Calculation Formula: Cell survival rate=(OD value of test group/OD value of control group)×100%.

[2] = tested on: mice melanoma cell B16-F10; assay: MTT test of inhibiting cancer cells, B16-F10; type: cell-based; settings: Mus musculus, 72 hours, FIG. 8, read-out: IC50 value, growth of B16-F10
Procedure: as §1, §2

[3] = biological target: T1, Porcine pancreatic lipase (Sus scrofa, UniProt P00591); assay: Test of activity of inhibiting lipase (copper oleate colorimetry, olive oil substrate); type: biochemical, pig; settings: for Absorbance: 714 nm, blank control 0.6680; for Enzyme activity: blank control 1.69; for Concentration of generated oleic acid: blank control 2.75
T1 construct: purchased Sigma
T1 sequence (P00591 1-450): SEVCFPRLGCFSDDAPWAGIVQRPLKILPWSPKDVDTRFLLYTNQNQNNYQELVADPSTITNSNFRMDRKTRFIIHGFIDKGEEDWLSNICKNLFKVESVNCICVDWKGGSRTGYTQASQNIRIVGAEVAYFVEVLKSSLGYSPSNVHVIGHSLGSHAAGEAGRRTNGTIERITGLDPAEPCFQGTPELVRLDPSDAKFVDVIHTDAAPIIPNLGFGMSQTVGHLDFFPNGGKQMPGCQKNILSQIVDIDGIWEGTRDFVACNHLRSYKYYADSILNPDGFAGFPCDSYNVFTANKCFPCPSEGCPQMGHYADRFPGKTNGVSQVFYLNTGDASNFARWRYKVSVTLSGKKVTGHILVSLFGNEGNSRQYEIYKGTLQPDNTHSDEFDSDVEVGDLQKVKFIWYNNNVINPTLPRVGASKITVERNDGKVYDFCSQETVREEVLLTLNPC
Procedure: 2.1 Preparation of light absorbance working curve for fatty acid: a series of oleic acid-toluene solutions with different concentrations (0-3.5 mmol/L, separately being 0, 0.225, 0.45, 0.675, 0.9, 1.125, 1.35, 1.8, 2.25, 2.7, and 3.5 mmol/L), 4 mL of each was taken and placed in conical flask, added with 1 mL of color developing agent, stirred with magnetic force for 3 minutes, oleic acid molecules and copper ions formed a green complex compound, after centrifugation, organic phase of upper layer was taken and measured at 714 nm to determine light absorbance.
2.2 Enzyme solution was 0.5 mg/mL pancreatic lipase solution; buffer solution was 0.07M NaH2PO4—K2HPO4 phosphate buffer solution (pH 7.0); color developing agent was 5% copper acetate solution, which was regulated with pyridine to have pH 6.1.
3 mL of 0.07M phosphate buffer solution and 1 mL of olive oil were pre-heated at a constant temperature of 37° C. for 5 minutes in water bath under agitation with a magnetic stirrer, added with 1.3 mL of enzyme solution (negative control was that without enzyme inhibitor; positive control is that added with 100 μL of 0.1 mg/mL orlistat solution; […]), stirred with magnetic force for 10 minutes, immediately added with 8 mL of toluene, stirred continuously for 2 minutes, the reaction was terminated, the generated oleic acid was extracted. The solutions were transferred to centrifuge tube, centrifuged under 4000 rpm for 10 minutes, and the organic phase and water phase were layered and clarified. 4 mL of the upper layer organic phase was taken and placed in a small conical flask, added with 1 mL of color developing agent, stirred with magnetic stirrer for 3 minutes, the generated oleic acid reacted with copper ions to form green complex compound. After centrifugation under 4000 rpm for 10 minutes, the upper layer of toluene solution containing copper oleate was taken, and measured with a spectrophotometer at 714 nm to determine its light absorbance. A blank solution without lipase was prepared as control by the same method, and concentration of fatty acid could be determined by referring to light absorbance working curve of oleic acid.
Enzyme activity unit of lipase was defined as follows: an enzyme amount to release 1 μmol fatty acid under certain condition was defined as 1 unit of lipase activity (U).
The following formula was used to calculate enzyme activity: X=(cV)/(tV′)
wherein: X represents enzyme activity of lipase, U/mL; c represents concentration of fatty acid, […]; V represents volume of fatty acid solution, mL; V′ represents amount of enzyme solution, mL; t represents action time, minute. Inhibition rate=[(enzyme activity of lipase−enzyme activity of lipase after inhibition)/enzyme activity of lipase]×100%

[4] = tested on: human mononuclear lymphoma cell THP1; assay: MTT test of inhibiting cancer cells, THP1; type: cell-based; settings: THP-1, 72 hours, FIG. 6, read-out: IC50 value, growth of THP1
Procedure: as §1, §2

[5] = tested on: human colon cancer cell strain HCT116; assay: MTT test of inhibiting cancer cells, HCT116; type: cell-based; settings: 72 hours, FIG. 1, concentration-effect relationship
Procedure: as §1, §2

[6] = tested on: mice lymphoma cell YAC-1; assay: MTT test of inhibiting cancer cells, YAC-1; type: cell-based; settings: Mus musculus, 72 hours, FIG. 5, read-out: IC50 value, growth of YAC-1
Procedure: as §1, §2

[7] = tested on: human tissue lymphoma cell U937; assay: MTT test of inhibiting cancer cells, U937; type: cell-based; settings: U-937, 72 hours, FIG. 7, read-out: IC50 value, growth of U937
Procedure: as §1, §2

[8] = final concentration of inhibitor in the system 111 μg/mL
[9] = final concentration of inhibitor in the system 166 μg/mL
[10] = final concentration of inhibitor in the system 203 μg/mL
[11] = final concentration of inhibitor in the system 240 μg/mL
[12] = final concentration of inhibitor in the system 333 μg/mL

For `C[C@@H](C(O)C1OC2C[C@H]3C4=CC=C5CC(O)CC[C@]5(C)[C@H]4CC[C@]3(C)[C@H]2[C@@]1(C)O)C(C)(C)O` (stereo partly drawn) [Compound of Formula II, 16,22-epoxy-ergosta-5,7-dien-3,20,23,25-tetraol], which IC50 [1] is on record?
The IC50 was roughly 200 µg/mL.

What about the IC50 [2] of the same molecule?
Its IC50 is roughly 62.5 µg/mL.

What about the Absorbance [3, 8] of the same molecule?
Its Absorbance is 0.5665.

And the Absorbance [3, 9]?
The Absorbance was 0.5035.

And the Absorbance [3, 10]?
Its Absorbance is 0.3998.

And the Absorbance [3, 11]?
Its Absorbance is 0.2743.

And the Absorbance [3, 12]?
Its Absorbance is 0.2611.

What about the Inhibition rate [3, 8] of the same molecule?
Its Inhibition rate is 15.38%.

What about the Enzyme activity [3, 8] of the same molecule?
The Enzyme activity was 1.43 U/mL.

And the “Concentration of generated oleic acid” value [3, 8]?
Its value is 2.32 mM.

What about the Inhibition rate [3, 9] of the same molecule?
The Inhibition rate was 24.85%.

What about the Enzyme activity [3, 9] of the same molecule?
The Enzyme activity was 1.27 U/mL.

What about the “Concentration of generated oleic acid” value [3, 9] of the same molecule?
Its value is 2.06 mM.

And the Inhibition rate [3, 10]?
The Inhibition rate was 40.83%.

What about the Enzyme activity [3, 10] of the same molecule?
Its Enzyme activity is 1.00 U/mL.

And the “Concentration of generated oleic acid” value [3, 10]?
The value was 1.63 mM.

What about the Inhibition rate [3, 11] of the same molecule?
The Inhibition rate was 59.76%.

And the Enzyme activity [3, 11]?
Its Enzyme activity is 0.68 U/mL.

And the “Concentration of generated oleic acid” value [3, 11]?
Its value is 1.10 mM.

What about the Inhibition rate [3, 12] of the same molecule?
Its Inhibition rate is 62.13%.

What about the Enzyme activity [3, 12] of the same molecule?
Its Enzyme activity is 0.64 U/mL.

What about the “Concentration of generated oleic acid” value [3, 12] of the same molecule?
Its value is 1.04 mM.

What about the IC50 ([3]; read-out: IC50 value, inhibition of activity of lipase (converted)) of the same molecule?
The IC50 was roughly 478 µM.

What about the IC50 [4] of the same molecule?
Its IC50 is roughly 250 µg/mL.

And the “inhibition effect on growth of HCT116 (in words)” value [5]?
The value was “inhibition effect”.

What about the IC50 [6] of the same molecule?
The IC50 was roughly 62.5 µg/mL.

What about the IC50 [7] of the same molecule?
Its IC50 is roughly 50 µg/mL.
